Legend:
[1] = tested on: H358 cells; assay: Colony forming assay; assay type: cell-based; conditions: non-small cell lung H358; FUdR between 0.5 and 2.5 μmol/L
Method: (§1) Colony forming assay showing the ability of colon (SW620, HCT116), non-small cell lung (A549, H460, H1299 and H358) and breast (MCF7) cancer cells to survive and proliferate following transient 24 hour exposure to test compounds, FUdR and combinations are determined. Specifically, cells are seeded at densities between 50 and 100 cells/well in 24-well plates. Twenty-four hours later, cells are treated with increasing concentrations of a rtest compound, a fixed dose of FUdR and combinations of these. After 24 hours, drug is removed, cells are rinsed and allowed to outgrow for 10-14 days. At the conclusion of the outgrowth, cells are fixed in 60% ice cold methanol and stained with 0.1% crystal violet, scanned and counted. Data is presented as percentage of untreated controls (mean±SD). Fraction affected and combination indexes are calculated according to the method of Chou and Talalay where <1 is indicative of a synergistic drug interaction.
(§2) Colony forming assays are performed to evaluate the effectiveness of test compounds alone and in combination with the fluoropyrimidine thymidylate synthase (TS) inhibitor fluorodeoxyuridine (FUdR) at reducing cancer cell viability in colorectal (HCT116), breast (MCF-7) and non-small cell lung (H1299, A549, H358 and H460) cell line models. […] In colorectal cancer cells, concentrations of test compounds ranging e.g., from 3.1 μmol/L to 50 μmol/L are combined with 0.5 μmol/L FUdR in HCT116 cells and 1 μmol/L FUdR in SW620 cells.

[2] = tested on: MCF-7 cells; assay: Colony forming assay; assay type: cell-based; conditions: breast MCF-7; FUdR between 0.5 and 2.5 μmol/L
Method: as §1, §2

[3] = tested on: H1299 cells; assay: Colony forming assay; assay type: cell-based; conditions: non-small cell lung H1299; FUdR between 0.5 and 2.5 μmol/L
Method: as §1, §2

[4] = tested on: HCT116 cells; assay: Colony forming assay; assay type: cell-based; conditions: colorectal HCT116; FUdR between 0.5 and 2.5 μmol/L
Method: as §1, §2

[5] = tested on: H460 cells; assay: Colony forming assay; assay type: cell-based; conditions: non-small cell lung H460; FUdR between 0.5 and 2.5 μmol/L
Method: as §1, §2

[6] = tested on: A549 cells; assay: Colony forming assay; assay type: cell-based; conditions: non-small cell lung A549; FUdR between 0.5 and 2.5 μmol/L
Method: as §1, §2

[7] = target: T1, recombinant human deoxyuridine nucleotidohydrolase (dUTPase) (Homo sapiens, UniProt P33316); assay: fluorescence-based dUTPase inhibition assay; assay type: biochemical; conditions: 5 ng recombinant dUTPase, 50 pmols dUTP, 37° C. for 8 mins
T1 construct: made in house
T1 sequence (P33316 1-164 isoform P33316-2): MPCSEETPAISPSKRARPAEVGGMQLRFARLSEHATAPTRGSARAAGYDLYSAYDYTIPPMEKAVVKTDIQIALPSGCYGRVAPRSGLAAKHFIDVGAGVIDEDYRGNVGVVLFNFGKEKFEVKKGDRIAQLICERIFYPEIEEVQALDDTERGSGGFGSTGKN
From the text: Recombinant human deoxyuridine nucleotidohydrolase (dUTPase) is expressed and purified as described in Ladner R D, Carr S A, Huddleston M J, McNulty D E, Caradonna S J. J Biol Chem. 1996 Mar. 29; 271(13):7752-7. All drugs stocks are aliquoted and diluted as appropriate prior to use. The oligonucleotide primer, templates and fluorophore- and quencher-labeled detection probes are synthesized by Integrated DNA Technologies (Coralville, Iowa), subjected to polyacrylamide gel electrophoresis purification and reconstituted in Omnipur sterile nuclease-free water (EMD Chemicals USA, Gibbstown N.J.) at a stock concentration of 100 μmol/L. The two non-emissive (dark) quenching molecules incorporated into the detection probes include the Iowa black […] (IBFQ; absorption max 531 nm) and ZEN (non-abbreviation; absorption max 532 nm). The fluorescent label utilized is 6-FAM (5′-carboxyfluorescein; excitation max.=494 nm, emission max.=520 nm). Probes are further diluted to a working stock of 10 μmol/L and aliquoted to avoid repeated freeze/thaw cycles. […]
Reaction mixtures contained primer, probe and template at an equimolar final concentration of 0.4 μmol/L. Magnesium chloride (MgCl2) is included at a final concentration of 2 mmol/L. Non-limiting dNTPs are included in the reaction mix in excess at a final concentration of 100 μmol/L (dUTP/dTTP is excluded). […] Thermal profiling and fluorescence detection is performed using a customized thermal program on board a Roche Lightcycler LC480 Instrument II. […] Raw fluorescence spectra for 6-FAM is measured at specified time intervals to follow assay progression on board a Roche LightCycler 480 Software Version 1.5 and exported and analyzed in Microsoft Excel (Microsoft, Redmond Wash.) and Prism (GraphPad Software, La Jolla Calif.). Fluorescence values for blank reactions (limiting dNTP omitted) are subtracted to give normalized fluorescence units (NFU) to account for background fluorescence.
Test compounds are screened in a fluorescence-based assay. […]

[8] = tested on: HCT116 cells; assay: MTS growth inhibition assay; assay type: cell-based; conditions: colorectal HCT116; 5-FU between 0 and 100 μmol/L; 72 hours
Method: (§3) The Cell Titer AQueous MTS assay (Promega) is carried out according to the manufacturers guidelines. […] The combination effect is determined by the combination index (CI) method utilizing Calcusyn software (Biosoft, Ferguson, Mo.). Fraction affected (FA) is calculated from the percent growth inhibition: FA=[…]. CI values <1, synergism; 1-1.2, additive and >1.2, antagonism.
(§4) Test compounds are evaluated for their antitumor activity in colorectal cancer cells using the MTS growth inhibition assay. HCT116 and SW620 cells are exposed to increasing concentrations of each agent for 72 hours and growth inhibition is directly compared to vehicle-treated controls. The NSCLC cell lines A549 and H1299 are exposed to increasing concentrations of each agent for 72 hours and growth inhibition is directly compared to vehicle-treated controls.
(§5) MTS growth inhibition assays are performed to evaluate the effectiveness of the test compounds alone and in combination with the fluoropyrimidine thymidylate synthase (TS) inhibitor 5-fluorouracil (5-FU) at inhibiting the growth of colorectal (HCT116 and SW620) cell line models. […] Simultaneous treatment with increasing concentrations of 5-FU and a test compound at fixed concentrations of 25 μmol/L is determined.

[9] = tested on: SW620 cells; assay: MTS growth inhibition assay; assay type: cell-based; conditions: colorectal SW620; 5-FU between 0 and 100 μmol/L; 72 hours
Method: as §3, §4, §5

O=c1[nH]c(=O)n([C@H]2C[C@H](O)[C@@H](CO)O2)cc1F [FUdR, fluorodeoxyuridine]
colonies formed [1]: dose-dependent decreases in colonies formed
colonies formed [2]: dose-dependent decreases in colonies formed
colonies formed [3]: dose-dependent decreases in colonies formed
colonies formed [4]: dose-dependent decreases in colonies formed
colonies formed [5]: dose-dependent decreases in colonies formed
colonies formed [6]: dose-dependent decreases in colonies formed

C[C@@H](NS(=O)(=O)CCc1cccc(N2CC(=O)NC2=O)c1)c1ccc(F)c(OCC2CC2)c1 [Example 79, (R)—N-(1-(3-(cyclopropylmethoxy)-4-fluorophenyl)ethyl)-2-(3-(2,4-dioxoimidazolidin-1-yl)phenyl)ethane-1-sulfonamide]
IC50 [7]: ~100 µM

O=c1[nH]cc(F)c(=O)[nH]1 [Example 5-FU, 5-fluorouracil]
growth inhibition [8]: dose-dependent increases in growth inhibition
growth inhibition [9]: dose-dependent increases in growth inhibition

C[C@@H](NS(=O)(=O)Cc1cccc(CN2CC(=O)NC2=O)c1)c1ccc(F)c(OCC2CC2)c1 [Example 81, (R)—N-(1-(3-(cyclopropylmethoxy)-4-fluorophenyl)ethyl)-1-(3-((2,4-dioxoimidazolidin-1-yl)methyl)phenyl)methanesulfonamide]
IC50 [7]: 80 µM

C[C@@H](NS(=O)(=O)Cc1ccc(CN2CC(=O)NC2=O)cc1)c1ccc(F)c(OCC2CC2)c1 [Example 82, (R)—N-(1-(3-(cyclopropylmethoxy)-4-fluorophenyl)ethyl)-1-(4-((2,4-dioxoimidazolidin-1-yl)methyl)phenyl)methanesulfonamide]
IC50 [7]: 2.2 µM

Reference: patent US11014924B2, “Hydantoin containing deoxyuridine triphosphatase inhibitors” (CV6 Therapeutics (NI) Limited, priority 2016, dated 2021)
